Reference: PMC11334105, “Contribution of Noncovalent Recognition and Reactivity to the Optimization of Covalent Inhibitors: A Case Study on KRas^G12C” (ACS Chemical Biology, 2024)
Like-named read-outs stand apart in the source and are kept apart here.

Legend:
H1792 = test: Cell proliferation assay (MTT), KRAS^G12C expressing cell; details: Homo sapiens, NCI-H1792, 72 h, read-out: IC50 anti-proliferative activity
MiaPaca2 = test: as above; details: Homo sapiens, MIA PaCa-2, 72 h, read-out: IC50 anti-proliferative activity
H358 = test: as above; details: Homo sapiens, NCI-H358, 72 h, read-out: IC50 anti-proliferative activity
KRAS^G12C [1] = target: T1, KRAS^G12C (Homo sapiens, UniProt P01116, G12C); test: MANT-GDP nucleotide exchange assay (SOS1, GppNHp); assay type: biochemical
Procedure: The reaction was stopped by adding MgCl2 to a final concentration of 10 mM, then incubated at 20 °C for 30 min. The unbound MANT-GDP was removed using the NAP-5 column equilibrated with nucleotide exchange buffer (40 mM HEPES-NaOH (pH 7.5), 50 mM NaCl, 10 mM MgCl2, 2 mM Dithiothreitol DTT).

[2] = HPLC-based GSH reactivity and stability assay; assay type: physicochemical; details: for half-life at 250 μM: 5 mM glutathione, PBS pH 7.4, corrected for aqueous degradation, mean ± SD, n = 2, read-out: t1/2 GSH (converted); for experimental ΔG^#(GSH): free energy barrier calculated from t1/2 and GSH^– concentration
Procedure: The cysteine reactivity of the compounds was first assessed in a surrogate kinetic assay.[25],[26] Glutathione (GSH), a cysteine surrogate, was used in a large excess to ensure quasi-first-order reaction kinetics.
The sample was eluted with gradient elution using eluent A (0.1% FA in H2O) and eluent B (0.1% FA in ACN). The column temperature was always kept at 30 °C; the injection volume was 20 μL, the flow rate was set to 1.5 mL/min, and a Reprospher C18 (5 μm, 100 mm × 3 mm) column was used along with the following gradient. […] The AUC (area under the curve) values were determined via the integration of HPLC chromatograms and then corrected with the internal standard. The fragments’ AUC values were subjected to ordinary least-squares (OLS) linear regression, and to compute the important parameters (kinetic rate constant and half-life time), an Excel sheet was applied. The data are expressed as means of duplicate determinations. The kinetic rate constant for the degradation and corrected GSH reactivity were calculated as follows. The reaction half-life for pseudo-first-order reactions (t1/2) is ln 2/k, where k is the reaction rate. In the case of competing reactions (reaction with GSH and degradation), the apparent reaction rate is kapp = kdeg + kGSH. When half-lives are measured experimentally, t1/2(app) = ln 2/(kapp) = ln 2/(kdeg + kGSH). In our case, the corrected kdeg and kapp (regarding blank and GSH-containing samples, respectively) can be calculated by the linear regression of the measured kinetic data points. The corrected kGSH is calculated as kapp – kdeg, and finally, the half-life is determined using the equation t1/2 = ln 2/k.

KRAS^G12C [3] = target: T1, KRAS^G12C; test: LC-MS occupancy measurements (KI and kinact determination); assay type: binding; details: for kobs: 5 μM KRASG12C, duplicated experiments; for experimental ΔG^# (KRAS^G12C): free energy barrier calculated from kinact; for experimental ΔGbind: obtained as RT ln(KI) with KI in M units
KRAS^G12C [4] = details: published value ref 46; cited from earlier work
KRAS^wt = KRAS^wt (Homo sapiens, UniProt P01116); test: MANT-GDP nucleotide exchange assay against wild type
Procedure: In the experiments, we used the GTP analogue, GppNHp, which cannot be hydrolyzed by Ras.
After the incubation, the MANT-GDP KRAS-inhibitor mixtures were loaded into a black 384-well microplate in the presence or absence of the different inhibitor molecules in various concentrations. The nucleotide exchange reaction was initiated by adding a 100-fold molar excess of GppNHp (catalog no.: G0635, Sigma-Aldrich), a nonhydrolyzable GTP analog, and the SOS1 exchange domain (catalog no.: GE02, Cytoskeleton, Inc.) protein in 0.2 μM final concentration. The change in fluorescence intensity was measured every 30 s in RT for 60 min on an EnvSpire plate reader (PerkinElmer, Inc.). The measured values were fitted to a single exponential function by using GraphPad Prism 10 software. The derived rates were normalized to the RAS-SOS1 minus RAS-only samples from which the IC50 values were calculated from three independent experiments with each inhibitor using GraphPad Prism 10 software.

[5] = KRAS^G12C, 60 min incubation with inhibitor, mean ± SD, n = 3, read-out: IC50 inhibition of nucleotide exchange
[6] = PBS buffer with 5 mM glutathione (GSH)
[7] = fit of kobs vs concentration, MS occupancy, mean ± SD, n = 2
[8] = fit of kobs vs concentration, MS occupancy, mean ± SD, n = 2, read-out: KI

SMILES | IC50 (H1792) [µM] | IC50 (MiaPaca2) [µM] | IC50 (H358) [µM] | IC50 (KRAS^G12C [1]) [µM] | half-life at 250 μM ([2]; buffer) [h] | experimental ΔG^#(GSH) [2] [kcal/mol] | Ki (KRAS^G12C [3]) [µM] | kobs (KRAS^G12C [3]; 20 μM inhibitor) [s⁻¹] | kobs (KRAS^G12C [3]; 40 μM inhibitor) [s⁻¹] | kobs (KRAS^G12C [3]; 80 μM inhibitor) [s⁻¹] | kobs (KRAS^G12C [3]; 160 μM inhibitor) [s⁻¹] | experimental ΔG^# (KRAS^G12C) (KRAS^G12C [3]) [kcal/mol] | experimental ΔGbind (KRAS^G12C [3]) | IC50 (KRAS^G12C [1]; [5]) [µM] | half-life at 250 μM [2, 6] [h] | kinact/KI (KRAS^G12C [3]) [M⁻¹ s⁻¹] | kinact (KRAS^G12C [3]; [7]) | Ki (KRAS^G12C [3]; [8]) [µM] | kinact/KI (KRAS^G12C [4]) | IC50 (KRAS^wt) [µM]
C=CC(=O)N1CCN(c2ncnc3c(F)c(-c4c(O)cccc4F)c(Cl)cc23)CC1 [ARS-1620, reference compound] | 10.2 | 0.14 | 0.31 |  |  |  |  |  |  |  |  |  |  |  |  |  |  |  |  | 
O=C(C1CN1)N1CCN(c2ncnc3cc(-c4c(O)cccc4F)c(Cl)cc23)CC1 (centres unmarked) [4a, Aziridin-2-yl(4-(6-chloro-7-(2-fluoro-6-hydroxyphenyl)quinazolin-4-yl)piperazin-1-yl)methanone] | 22.6 | 19.8 | 27.1 | 198 ± 39 | > 72 | >20.1 | 22.2 ± 1.8 | 0.00004 ± 0.00001 | 0.0006 ± 0.00001 | 0.00007 ± 0.00001 | 0.00008 ± 0.00001 | 22.9 ± 0.0 | –6.3 ± 0.1 kcal/mol |  |  |  |  |  |  | 
C=CC(=O)N1CCN(c2ncnc3cc(-c4c(O)cccc4F)c(Cl)cc23)CC1 [1a, 1-(4-(6-Chloro-7-(2-fluoro-6-hydroxyphenyl)quinazolin-4-yl)piperazin-1-yl)prop-2-en-1-one] | 16.2 | 1.8 | 2.3 |  |  |  |  |  |  |  |  |  |  | 0.827 ± 0.137 |  |  |  |  |  | 
O=C(N1CCN(c2ncnc3cc(-c4c(O)cccc4F)c(Cl)cc23)CC1)n1ccnc1 [3a, (4-(6-Chloro-7-(2-fluoro-6-hydroxyphenyl)quinazolin-4-yl)piperazin-1-yl)(1H-imidazol-1-yl)methanone] | 17.9 | 20.4 | 27.4 |  |  | 19.6 ± 0.2 |  | 0.00014 ± 0.00003 | 0.00021 ± 0.00005 | 0.00033 ± 0.00004 | 0.00033 ± 0.00006 | 22.0 ± 0.2 | –6.0 ± 0.4 kcal/mol | 67.4 ± 11.3 | 35 ± 11 | 9.8 ± 4.7 | 0.4 ± 0.1 0.001 s^–1 | 40.9 ± 16.7 |  | 
O=C(CCl)N1CCN(c2ncnc3cc(-c4c(O)cccc4F)c(Cl)cc23)CC1 [2a, 2-Chloro-1-{4-[6-chloro-7-(2-fluoro-6-hydroxyphenyl)-quinazolin-4-il]piperazine-1-yl}ethane-1-one] | 2.9 | 3.1 | 2.7 |  |  |  |  |  |  |  |  |  |  | 0.305 ± 0.04 |  |  |  |  |  | 
CN1CCCC1COc1nc(N2CCN(C(=O)C3CN3)CC2)c2cc(Cl)c(-c3c(O)cccc3F)cc2n1 (centres unmarked) [4b, Aziridin-2-yl(4-(6-chloro-7-(2-fluoro-6-hydroxyphenyl)-2-((1-methylpyrrolidin-2-yl)methoxy)quinazolin-4-yl)piperazin-1-yl)methanone] | 30.8 | 48.2 | 90 | 84.4 ± 18.9 | > 72 | >20.1 | 112 ± 30.1 | 0.00029 ± 0.00018 | 0.00044 ± 0.00004 | 0.00072 ± 0.00018 | 0.00104 ± 0.00002 | 21.2 ± 0.1 | –5.4 ± 0.2 kcal/mol |  |  |  |  |  |  | 
C=CC(=O)N1CCN(c2nc(OC[C@@H]3CCCN3C)nc3c(F)c(-c4nc(N)cc(C)c4C(F)(F)F)c(Cl)cc23)[C@@H](C)C1 [Divarasib] |  |  |  |  |  |  |  |  |  |  |  |  |  |  |  |  |  |  | 710,000 M^–1 s^–1 | 
CN1CCCC1COc1nc(N2CCN(C(=O)n3ccnc3)CC2)c2cc(Cl)c(-c3c(O)cccc3F)cc2n1 (centres unmarked) [3b, (4-(6-Chloro-7-(2-fluoro-6-hydroxyphenyl)-2-((1-methylpyrrolidin-2-yl)methoxy)quinazolin-4-yl)piperazin-1-yl)(1H-imidazol-1-yl)methanone] | 17.7 | 8.8 | 9.9 |  |  | 19.7 ± 0.3 |  | 0.00005 ± 0.00001 | 0.0006 ± 0.00001 | 0.00009 ± 0.00001 | 0.00010 ± 0.00001 | 22.7 ± 0.0 | –6.0 ± 0.1 kcal/mol | 243 ± 52.4 | 40 ± 18 | 3.1 ± 0.7 | 0.13 ± 0.01 0.001 s^–1 | 42.2 ± 9.9 |  | 
C=CC(=O)N1CCN(c2nc(OCC3CCCN3C)nc3cc(-c4c(O)cccc4F)c(Cl)cc23)CC1 (centres unmarked) [1b, 1-(4-(6-Chloro-7-(2-fluoro-6-hydroxyphenyl)-2-((1-methylpyrrolidin-2-yl)methoxy)quinazolin-4-yl)piperazin-1-yl)prop-2-en-1-one] | 30.1 | 0.53 | 1.1 |  |  |  |  |  |  |  |  |  |  | 0.52 ± 0.108 |  |  |  |  |  | 177
CN1CCCC1COc1nc(N2CCN(C(=O)CCl)CC2)c2cc(Cl)c(-c3c(O)cccc3F)cc2n1 (centres unmarked) [2b, 2-Chloro-1-(4-(6-chloro-7-(2-fluoro-6-hydroxyphenyl)-2-((1-methylpyrrolidin-2-yl)methoxy)quinazolin-4-yl)piperazin-1-yl)ethan-1-one] | 1.8 | 3.2 | 1.8 |  |  |  |  |  |  |  |  |  |  | 0.642 ± 0.115 |  |  |  |  |  | 
